From US5861388A, “Steroid inhibitors of estrone sulfatase and associated pharmaceutical compositions and methods of use” (SRI International, priority 1997, dated 1999)

Columns and labels:
estrone sulfatase = target: T1, estrone sulfatase (Homo sapiens, UniProt P08842); experiment: Estrone sulfatase assay with intact MCF-7 cells; format: cell-based; conditions: concentration giving 50 % inhibition, 24 h, 3H-estrone sulfate substrate
T1 construct: Estrone Sulfatase Assay with Intact Cells; host or cells: MCF-7
T1 sequence (P08842 22-583): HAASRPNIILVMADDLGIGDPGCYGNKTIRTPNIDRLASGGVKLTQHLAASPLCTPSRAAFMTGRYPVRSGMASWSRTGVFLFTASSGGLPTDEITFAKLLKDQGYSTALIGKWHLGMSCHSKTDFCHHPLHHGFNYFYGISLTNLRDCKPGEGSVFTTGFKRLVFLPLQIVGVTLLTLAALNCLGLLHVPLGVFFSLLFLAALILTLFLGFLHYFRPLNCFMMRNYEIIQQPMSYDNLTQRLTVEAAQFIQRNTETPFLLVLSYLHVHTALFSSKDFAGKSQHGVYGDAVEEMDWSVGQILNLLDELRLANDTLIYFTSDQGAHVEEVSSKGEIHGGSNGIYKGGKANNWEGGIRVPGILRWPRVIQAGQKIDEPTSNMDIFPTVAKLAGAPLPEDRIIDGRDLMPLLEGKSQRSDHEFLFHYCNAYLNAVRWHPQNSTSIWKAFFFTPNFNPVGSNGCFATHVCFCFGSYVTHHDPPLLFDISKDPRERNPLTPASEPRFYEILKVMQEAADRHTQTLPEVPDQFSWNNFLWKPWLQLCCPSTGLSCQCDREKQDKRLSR
From the text: Test for the Effects of Inhibitors on Estrone Sulfatase Activity in MCF-7 Cells:
Reagents: MCF-7 human breast cancer cells were supplied by the American Type Culture Collection, Rockville, Md. Eagle's minimum essential medium (MEM) and fetal calf serum (FCS) were purchased from Sigma Chemical Company, St. Louis, Mo. [4-^14 C] Estrone, [6,7-^3 H] estradiol and [6,7-^3 H(N)] estrone sulfate were obtained from New England Nuclear Research Products, Boston, Mass.
Estrone Sulfatase Assay with Intact Cells. The procedure of Duncan et al., Cancer Res. 53:298-303 (1993) was followed. MCF-7 cells were seeded in 60×15 mm culture dishes at 1×10^5 cells/dish and maintained in 4.0 mL of MEM containing 2 mM of glutamine and 5% of FCS. The cells were incubated at 37° C. in a 5% CO2 /95% air atmosphere and 100% humidity, with the medium changed every third day. When the cells reach 80% confluency, the intact monolayers were washed once with Earl's balanced salt solution and incubated in 4.0 mL of serum-free MEM containing the substrate (^3 H-estrone sulfate, 7 pmol, 9×10^5 dpm) and inhibitor dissolved in ethanol or ethanol alone. The final ethanol concentration was always be below 1%. The incubation continued for 24 h. 2.0 mL of medium was transferred into separate tubes containing 7×10^3 dpm of ^14 C-estrone. The mixture was vortexed vigorously for 60 s with 5 mL of toluene. After phase separation, 2.0 mL of the organic phase was transferred into a counting vial for scintillation counting. The amount of estrone sulfate hydrolyzed was calculated on the basis of the ^3 H counts obtained, with the added ^14 C-estrone used to correct for recovery through the extraction procedure.
The cells remaining in each culture dish were washed with saline once and then scraped with 1.0 mL of 0.5N NaOH into 10×75 mm tubes. The cell pellets in each tube were incubated at 50° C. for 20 min. to ensure that digestion was complete and that all proteins became soluble. An aliquot was then taken for protein determination by Lowry's method (Lowry et al., J. Biol. Chem. 193:265-275 (1951)).
The amount of estrone sulfate hydrolyzed with the inhibitor relative to that without the inhibitor was evaluated to give the percentage of inhibition.

[1] = test system: MCF-7 human breast carcinoma xenografts; experiment: Tumor growth inhibition assay, MCF-7 human breast carcinoma xenografts in athymic mice; format: in vivo, human MCF-7 xenografts in female BALB/c athymic mice; conditions: i.p. 1.0 mg/mouse/day for 5 weeks, mean ± S.E.
From the text: In Vivo Efficacy Studies Using MCF-7 Cells in Nude Mice: For in vivo evaluation, human xenografts were used in nude (athymic) mice, in the context of a solid tumor assay. MCF-7 human breast carcinomas in nude mice were used as the model for evaluating the estrone sulfatase inhibitors. The protocol followed was essentially that of Yue et al., J. Steroid Biochem. 44:671-673 (1993). Because MCF-7 cells are known to require supplementation with estradiol to sustain progressive growth in athymic nude mice (Soule et al., Cancer Lett. 10:177-189 (1980)), estrone sulfate was used for supplemental estrogen in the model studies. The enzyme inhibitors were administered by intravenous injection, oral gavage, and intraperitoneal administration, and comparative efficacy of the various compounds were evaluated using these different routes. Female BALB/c athymic mice 4-6 weeks of age were supplied by Charles River Breeding Laboratories, Boston, Mass. MCF-7 cells for the in vitro cell growth inhibition assay were obtained from the American Type Culture Collection, Rockville, Md., and cultured under the same conditions as described above for the sulfatase assay. Tumor Growth Inhibition Assay (see […] et al. (1990), supra, Yue et al., supra, and Noel et al., Biochem. Pharmacol. 43:1263-1267 (1992): The athymic mice were housed five per cage in controlled conditions of light and humidity and received food and water ad libitum throughout the entire experiment. The mice were quarantined for three working days before use in experiments. Prior to the initiation of the antitumor experiments, the mice were housed for seven days to familiarize them with the experimental environment. Temperature was maintained at 72±5° F., with relative humidity at 35-70% and a 12-h light/dark cycle. The mice were fed certified Purina rodent chow and drinking water ad libitum. The source water was recirculated, deionized, UV-treated, and filtered (5-μm filter). At the beginning of the experiment, all but five of the mice underwent oophorectomies to eliminate the endogenous level of estrogen. After all animals recovered from surgery, all mice in the study received 5 μmol of estrone sulfate daily via gavage or subcutaneous (sc) injection. The dosing of estrone sulfate was carried out throughout the entire experiment. Seven days after the animals began treatment with estrone sulfate, each mouse was be injected sc twice (once in each flank) with 2.5×10^6 MCF-7 cells suspended in 0.1 mL of serum-free tissue culture medium to induce tumor growth. The growth rate was determined by measuring the tumors with calipers weekly. Tumor volumes were calculated according to the formula 4/3πr1^2,r2, where r1 and r2 represent the tumor radii. When the average tumor volume per mouse reached approximately 200 mm^3, animals began to receive various doses of estrone sulfatase inhibitors dissolved in 0.1 mL of phosphate buffered saline (PBS). Dosing was by oral gavage, intravenous injection, and intraperitoneal injection; daily dosing with estrone sulfatase inhibitors was continued throughout the remainder of the experiment. The estrone sulfatase inhibitors not soluble in aqueous solutions were dissolved in EtOH first and diluted with PBS to obtain the appropriate concentrations of inhibitor but keeping the concentration of EtOH below 1%. For each test compound, the mice were divided into several groups with five animals in each group. These groups were as follows: intact control group receiving PBS alone; oophorectomized control group receiving PBS alone; and oophorectomized treatment groups receiving various doses of estrone sulfatase inhibitors. […] The change in tumor volume in the treatment groups relative to that in the oophorectomized control group gave the percent inhibition of a given inhibitor.

SMILES | IC50 (estrone sulfatase) [nM] | further results
CC(=O)O[C@H]1CC[C@H]2[C@@H]3CCc4cc5c(cc4[C@H]3CC[C@]12C)C=NS(=O)(=O)O5 [Compound 4, 17β-acetoxyestra-1,3,5(10)-trieno-[3,2,e]-1',2',3'-oxathiazine-2',2'-dioxide] | 12 | –
C[C@]12CC[C@@H]3c4cc5c(cc4CC[C@H]3[C@@H]1CCC2=O)OS(=O)(=O)N=C5 [Compound 6, Estra-1,3,5(10)-trien-17-ono-[3,2,e]-1',2',3'-oxathiazine-2',2'-dioxide] | 9.3 | Tumor Volume, week 0 ([1]; week 0, control 96.5 ± 5.2): 133.6 ± 15.9 mm^3; Tumor Volume, week 1 ([1]; week 1, control 184.1 ± 26.3): 185.8 ± 16.5 mm^3; Tumor Volume, week 2 ([1]; week 2, control 191.2 ± 36.1): 191.3 ± 25.1 mm^3; Tumor Volume, week 3 ([1]; week 3, control 232.9 ± 46.4): 181.8 ± 27.8 mm^3; Tumor Volume, week 4 ([1]; week 4, control 299.5 ± 54.3): 234.0 ± 50.7 mm^3; Tumor Volume, week 5 ([1]; week 5, control 349.0 ± 46.2): 285.8 ± 47.7 mm^3
C[C@]12CC[C@@H]3c4cc5c(cc4CC[C@H]3[C@@H]1CC[C@@H]2O)OS(=O)(=O)N=C5 [Compound 10, 17β-hydroxyestra-1,3,5(10)-trieno-[3,2,e]-1',2',3'-oxathiazine-2',2'-dioxide] | 20 | –
C[C@]12CC[C@@H]3c4cc5c(cc4CC[C@H]3[C@@H]1CC[C@@H]2O)OS(=O)(=O)NC5 [Compound 11, 17β-Hydroxyestra-1,3,5(10)-trieno-[3,2,e]-3',4'-dihydro-1',2',3'-oxathiazine-2',2'-dioxide] | 820 | –
C[C@]12CC[C@@H]3c4ccc5c(c4CC[C@H]3[C@@H]1CCC2=O)C=NS(=O)(=O)O5 [Compound 13, estra-1,3,5(10)-trien-17-ono-[3,4,e]-1',2',3'-oxathiazine-2',2'-dioxide] | 44 | –
C[C@]12CC[C@@H]3c4ccc5c(c4CC[C@H]3[C@@H]1CC[C@@H]2O)CNS(=O)(=O)O5 [Compound 14, 17β-Hydroxyestra-1,3,5(10)-trieno-[3,4,e]-3',4'-dihydro-1',2',3'-oxathiazine-2',2'-dioxide] | 15000 | –
CC[C@H]1CC[C@H]2[C@@H]3CCc4cc5c(cc4[C@H]3CC[C@]12C)C=NS(=O)(=O)O5 [Compound 17, 19-norpregna-1,3,5(10)-trieno-[3,2,e]-1',2',3'-oxathiazine-2',2'-dioxide] | 50 | –
C=C1CC[C@H]2[C@@H]3CCc4cc5c(cc4[C@H]3CC[C@]12C)C=NS(=O)(=O)O5 [Compound 30, 17-methyleneestra-1,3,5(10)-trieno-[3,2,e]-1',2',3'-oxathiazine-2',2'-dioxide] | 72 | –
C/C=C1/CC[C@H]2[C@@H]3CCc4cc5c(cc4[C@H]3CC[C@]12C)C=NS(=O)(=O)O5 [Compound 31, [17(20)Z]-norpregna-1,3,5(10),17(20)-tetraeno-[3,2,e]-1',2',3'-oxathiazine-2',2'-dioxide] | 63 | –
CC/C=C1/CC[C@H]2[C@@H]3CCc4cc5c(cc4[C@H]3CC[C@]12C)C=NS(=O)(=O)O5 [Compound 32, [17(20)Z]-Propylideneestra-1,3,5(10)-trieno-[3,2,e]-1',2',3'-oxathiazine-2',2'-dioxide] | 58 | –
CCC/C=C1/CC[C@H]2[C@@H]3CCc4cc5c(cc4[C@H]3CC[C@]12C)C=NS(=O)(=O)O5 [Compound 33, [17(20)Z]-19,21-dinorchola-1,3,5(10),17(20)-tetraeno-[3,2,e]-1',2',3'-oxathiazine-2',2'-dioxide] | 720 | –
C[C@H]1CC[C@H]2[C@@H]3CCc4cc5c(cc4[C@H]3CC[C@]12C)C=NS(=O)(=O)O5 [Compound 34, 17β-methylestra-1,3,5(10)-trieno-[3,2,e]-1',2',3'-oxathiazine-2',2'-dioxide] | 45 | –
CCC[C@H]1CC[C@H]2[C@@H]3CCc4cc5c(cc4[C@H]3CC[C@]12C)C=NS(=O)(=O)O5 [Compound 35, 17β-Propylestra-1,3,5(10)-trieno-[3,2,e]-1',2',3'-oxathiazine-2',2'-dioxide] | 120 | –
CCCC[C@H]1CC[C@H]2[C@@H]3CCc4cc5c(cc4[C@H]3CC[C@]12C)C=NS(=O)(=O)O5 [Compound 36, 17β-19,21-dinorchola-1,3,5(10)-trieno-[3,2,e]-1',2',3'-oxathiazine-2',2'-dioxide] | 590 | –
C=C=C1CC[C@H]2[C@@H]3CCc4cc5c(cc4[C@H]3CC[C@]12C)C=NS(=O)(=O)O5 [Compound 40, 19-Norpregna-1,3,5(10),17(20),20-pentaeno-[3,2,e]-1',2',3'-oxathiazine-2',2'-dioxide] | 74 | –
CO[C@H]1CC[C@H]2[C@@H]3CCc4cc5c(cc4[C@H]3CC[C@]12C)C=NS(=O)(=O)O5 [Compound 43, 17β-methoxyestra-1,3,5(10)-trieno-[3,2,e]-1',2',3'-oxathiazine-2',2'-dioxide] | 50 | –
